# Source: patent publication US9969679B2, “Anti-proliferative compounds and uses thereof” (Dana-Farber Cancer Institute, Inc., priority 2012, dated 2018)
# Experiments:
# [1] = tested on: MCF7 human breast cancer cell lines; assay: MCF7 cell growth, MTT dye absorbance; type: cell-based; conditions: for MCF7 cell growth: 72 hr
# Procedure: (§1) MCF7 human breast cancer cell lines were obtained from the American Type Culture Collection (Manassas, Va.). The cells were cultured in DMEM (Mediatech Inc., Manassas, Va.) or RPMI1640 (Mediatech Inc., Manassas, Va.) supplemented with FBS (10%), penicillin, streptomycin, and glutamine (Invitrogen, Auckland, New Zealand). […] The MCF7 cells were harvested using 0.05% trypsin-EDTA (Invitrogen) and distributed into 96-well plates (10,000-20,000 cells/well) 24 hr prior to the treatment. All experiments were performed three times in quadruplicate.
# [2] = tested on: LnCaP human prostate cancer cells; assay: LnCaP cell growth, MTT dye absorbance; type: cell-based; conditions: 72 hr
# Procedure: [The procedure below names another cell line; the source lists this cell line under the same test.] as §1
# [3] = tested on: T47D human breast cancer cells; assay: T47D cell growth, MTT dye absorbance; type: cell-based; conditions: for T47D cell growth: 72 hr
# Procedure: as §1
# T47D human breast cancer cells were obtained, cultured (in the presence of compounds III-A, III-B, III-C, or III-E), and assayed in a similar manner as in Example 6.
# EGFR = assay: Immunoblot of whole cell lysates for EGFR; type: cell-based, human; conditions: for EGFR expression, dose-dependent: 24 hr
# Procedure: (§2) MCF7 cells were obtained and cultured (in the presence of compound III-B for 48 hr) in a similar manner as in Example 6. The cultured MCF7 cells were harvested, washed, and lysed using a lysis buffer (50 mM Tris-HCl (pH 7.4), 150 mM NaCl, 1% NP-40, 5 mM EDTA, 5 mM NaF, 1 mM Na3VO4, 1 mM PMSF, 5 μg/ml leupeptine, and 5 μg/ml aprotinin). […] The antibodies used were polyclonal anti-acetylated lysine (Ac—K; Cell Signaling Technology, Danvers, Mass.) and antibodies directed against EGFR, HER2, ER, and acetylated-α-tubulin (Ac-α-tubulin). […] In contrast, the expression of Ac—K in MCF7 cells was not affected by compound III-B (FIG. 12B).
# (§3) MCF7 and T47D cells were obtained and cultured (in the presence of compound III-D (0, 0.5, 1, or 2 μM), for 24 hr), using methods similar to the ones described in Example 6. The whole cell lysates were immunoblotted with antibodies against EGFR, HER2, ER, and α-tubulin using methods similar to the ones described in Example 12. […] In contrast, the expression of α-tubulin in MCF7 or T47D cells was not affected by compound III-D (FIG. 13B).
# (§4) MCF7 cells were obtained and cultured (in the presence of 2 μM of compound III-D, for 0, 12, 24, or 48 hr) using methods similar to the ones described in Example 6. The whole cell lysates were immunoblotted with antibodies against EGFR, HER2, ER, and α-tubulin using methods similar to the ones described in Example 12. […] In contrast, the expression of α-tubulin in MCF7 cells was not affected by compound III-D.
# HER2 = assay: Immunoblot of whole cell lysates for HER2; type: cell-based, human; conditions: for HER2 expression, dose-dependent: 24 hr
# Procedure: as §2, §3, §4
# ER = assay: Immunoblot of whole cell lysates for ER; type: cell-based, human; conditions: for ER expression, dose-dependent: 24 hr
# Procedure: as §2, §3, §4
# acetylated lysine (Ac—K) = assay: Immunoblot for acetylated lysine (histone acetylation); type: cell-based, human; conditions: MCF7 cells, 48 hr
# Procedure: as §2
# MCF7 cells = assay: Bortezomib and III-D combination cytotoxicity in MCF7 cells, MTT, isobologram analysis; type: cell-based, human; conditions: 48 hr; for Combination indicia (CI): MCF7 cells
# Procedure: as §1
# MCF7 cells were obtained, cultured (in the presence of bortezomib (0, 10, 20, or 40 nM) and III-D (0, 0.3, 1, or 3 μM), for 48 hr), and assayed using methods similar to the ones described in Example 6. The statistical significance of the differences observed between the control cultures and the cultures treated with bortezomib and compound III-D was determined using the Wilcoxon signed-ranks test. The minimal level of significance was p<0.05. The interaction between compound III-D and bortezomib was analyzed by isobologram analysis using the CalcuSyn software program (Biosoft, Ferguson, Mo.) to determine whether the combination was additive or synergistic. A combination index (CI)<1.0 indicates a synergistic cell growth inhibitory effect.
# [4] = tested on: CD11b+CD14−HLA-DR−/lowCD33+CD15+ MDSCs in MM-PBMC; assay: MDSC number and maturation in MM-PBMC, flow cytometry; type: cell-based, human; conditions: 1 μM, cultured overnight; for number of CD11b+CD14−HLA-DR−/lowCD33+CD15+ MDSCs in MM-PBMC: vs untreated MM-PBMC
# Procedure: In order to determine whether myeloid derived suppressor cells (MDSCs) are present in subjects with multiple myeloma (MM), fresh or cultured peripheral blood mononuclear cells (PBMCs) and bone marrow mononuclear cells (BMMCs) from human subjects with MM have been analyzed using standard cell-surface multicolor flow cytometry staining methods (see, e.g., Herzenberg et al., Clin. Chem. (2002) 48:1819-27; and Perez et al., Nat. Biotechnol. (2002) 20:155-62).
# MM-PBMCs were cultured overnight with (1 μM) or without compound III-D. MDSCs (CD11b^+CD14^−HLA-DR^−/lowCD33^+CD15^+) were determined by flow cytometry analysis. Gates 110 and 130 indicate the MDSC population. Compound III-D induces maturation of MDSCs (CD11b^+CD14^−HLA-DR^−/lowCD33^+CD15^+) into CD14^+ and/or CD14^−[…] (FIG. 3G) in MM peripheral blood compared to untreated MM-PBMC (FIG. 3C). MM-PBMCs were cultured overnight with (1 μM) or without compound III-D. CD14 and/or HLA-DR expressing MDSCs (CD11b^+CD14^−HLA-DR^−/lowCD33^+CD15^+) were determined by flow cytometry analysis. Gates 100 and 120 indicate CD14^+ mature MDSC population. Gating strategy of MDSCs has been indicated as CD11b^+ cells (FIGS. 3A-3B and 3E-3F), CD11b^+CD14^−HLA-DR^−/lowCD14^− cells (FIGS. 3C and 3G) and MDSCs with a phenotype of CD11b^+/HLA-DR^−/lowCD14^−/CD33^+CD15^+ cells (FIGS. 3D and 3H).
# [5] = tested on: T cells cocultured with MDSCs from peripheral blood of MM patients; assay: MDSC-mediated T cell suppression, 3H-Thymidin incorporation assay; type: cell-based, human; conditions: 1 μM, 5 days coculture, T:MDSCs 4:1, antiCD3/CD28 Abs and rhIL-2
# Procedure: CD11b^+CD14^−HLA-DR^−/lowCD33^+ MDSCs and CD3T cells were isolated from peripheral blood of MM patients. The cells were stimulated with antiCD3/CD28 Abs and 2 ng/ml rhIL-2 and cocultured (ratio of T:MDSCs was 4:1) for 5 days in the absence or presence (1 μM) of compound III-D. The cell proliferation was measured by ^3H-Thymidin incorporation assay.
# pY701 STAT1 = assay: Intracellular flow cytometry of STAT1 phosphorylation in MDSCs; type: cell-based, human; conditions: 1 μM overnight, MM-PBMC, PHA 2 ng/ml 10 min
# Procedure: (§5) STAT-mediated signaling plays an important role in MDSC activation and function.
# (§6) MM-PBMCs were cultured overnight with (1 μM) or without compound III-D. Cells were induced with phytohemagglutinin (PHA, 2 ng/ml) for 10 min. Intracellular expression of pY701 STAT1, pY705 STAT3, pY694 STAT5, STAT1, STAT3, and STAT5 in MDSCs (CD11b^+CD14^−HLA-DR^−/lowCD33^+CD15^+), was determined by flow cytometry analysis.
# pY705 STAT3 = assay: Intracellular flow cytometry of STAT3 phosphorylation in MDSCs; type: cell-based, human; conditions: 1 μM overnight, MM-PBMC, PHA 2 ng/ml 10 min
# Procedure: as §5, §6
# pY694 STAT5 = assay: Intracellular flow cytometry of STAT5 phosphorylation in MDSCs; type: cell-based, human; conditions: 1 μM overnight, MM-PBMC, PHA 2 ng/ml 10 min
# Procedure: as §5, §6
# α-tubulin = assay: Immunoblot of whole cell lysates for α-tubulin; type: cell-based, human
# Procedure: as §2, §3, §4
# [6] = MCF7 cells, 2 μM, 0, 12, 24, or 48 hr
compound,measurement,setting,value
CC(=O)N/N=C/c1ccc(N(c2ccccc2)c2ccccc2)cc1 [Compound III-B],MCF7 cell growth,[1],inhibit
same,LnCaP cell growth,[2],inhibit
same,T47D cell growth,[3],inhibit
same,EGFR expression,"EGFR; MCF7 cells, 48 hr",down-regulates
same,HER2 expression,"HER2; MCF7 cells, 48 hr",down-regulates
same,ER expression,"ER; MCF7 cells, 48 hr",down-regulates
same,expression of Ac—K,acetylated lysine (Ac—K),not affected
"CC(C)C[C@H](NC(=O)[C@H](Cc1ccccc1)NC(=O)c1cnccn1)B(O)O [bortezomib, reference compound]",response of MCF7 cells to bortezomib as single agent,"MCF7 cells; bortezomib 0, 10, 20, or 40 nM",resistant
O/N=C/c1ccc(N(c2ccccc2)c2ccccc2)cc1 [Compound III-E],MCF7 cell growth,[1],inhibit
same,LnCaP cell growth,[2],inhibit
same,T47D cell growth,[3],inhibit
O=Cc1ccc(N(c2ccccc2)c2ccccc2)cc1 [III-A],MCF7 cell growth,[1],inhibit
same,LnCaP cell growth,[2],inhibit
same,T47D cell growth,[3],inhibit
CN1CCC(C(=O)N/N=C/c2ccc(N(c3ccccc3)c3ccccc3)cc2)CC1 [Compound III-D],maturation of MDSCs into CD14+ monocytes and/or CD14+HLA-DR+ antigen presenting cells,[4]; MM-PBMC,induced maturation
same,number of CD11b+CD14−HLA-DR−/lowCD33+CD15+ MDSCs in MM-PBMC,[4],significant decrease
same,MDSC-mediated T cell suppression (T cell proliferation),[5],Reversed
same,phosphorylation of STAT1 (pY701) in MDSCs,pY701 STAT1,significantly reduced
same,phosphorylation of STAT3 (pY705) in MDSCs,pY705 STAT3,significantly reduced
same,phosphorylation of STAT5 (pY694) in MDSCs,pY694 STAT5,significantly reduced
same,MCF7 cell growth,[1],inhibit
same,potency in inhibiting MCF7 cells compared with tamoxifen,[1]; at least at 3-10 μM of compound and tamoxifen,more potent than tamoxifen
same,potency in inhibiting T47D cells compared with tamoxifen,[3],more potent than tamoxifen
same,"EGFR expression, dose-dependent","EGFR; MCF7 cells, 0, 0.5, 1, or 2 μM",down-regulates
same,"EGFR expression, time-dependent",EGFR; [6],down-regulates
same,"EGFR expression, dose-dependent","EGFR; T47D cells, 0, 0.5, 1, or 2 μM",down-regulates
same,"HER2 expression, dose-dependent","HER2; MCF7 cells, 0, 0.5, 1, or 2 μM",down-regulates
same,"HER2 expression, time-dependent",HER2; [6],down-regulates
same,"HER2 expression, dose-dependent","HER2; T47D cells, 0, 0.5, 1, or 2 μM",down-regulates
same,"ER expression, dose-dependent","ER; MCF7 cells, 0, 0.5, 1, or 2 μM",down-regulates
same,"ER expression, time-dependent",ER; [6],down-regulates
same,"ER expression, dose-dependent","ER; T47D cells, 0, 0.5, 1, or 2 μM",down-regulates
same,expression of α-tubulin,"α-tubulin; MCF7 cells, 0, 0.5, 1, or 2 μM, 24 hr",not affected
same,expression of α-tubulin,α-tubulin; [6],not affected
same,expression of α-tubulin,"α-tubulin; T47D cells, 0, 0.5, 1, or 2 μM, 24 hr",not affected
same,Combination indicia (CI),MCF7 cells; III-D 0.3 μM + bortezomib 10 nM,1.58
same,Combination indicia (CI),MCF7 cells; III-D 0.3 μM + bortezomib 20 nM,1.29
same,Combination indicia (CI),MCF7 cells; III-D 0.3 μM + bortezomib 40 nM,0.83
same,Combination indicia (CI),MCF7 cells; III-D 1 μM + bortezomib 10 nM,0.66
same,Combination indicia (CI),MCF7 cells; III-D 1 μM + bortezomib 20 nM,0.53
same,Combination indicia (CI),MCF7 cells; III-D 1 μM + bortezomib 40 nM,0.53
same,Combination indicia (CI),MCF7 cells; III-D 3 μM + bortezomib 10 nM,1.22
same,Combination indicia (CI),MCF7 cells; III-D 3 μM + bortezomib 20 nM,1.03
same,Combination indicia (CI),MCF7 cells; III-D 3 μM + bortezomib 40 nM,0.98
same,enhancement of bortezomib-induced MCF7 cytotoxicity (interaction),"MCF7 cells; combination with bortezomib, at least at certain concentrations, CI<1 = synergistic",synergistically
CC(=O)NN=Cc1ccc(N(C)C)cc1 [Compound IV-D],MCF7 cell growth,[1],does not
CC(=O)NN=Cc1ccccc1 [Compound IV-C],MCF7 cell growth,[1],do not
O=C(NN=Cc1ccccc1)c1ccccc1 [Compound IV-B],MCF7 cell growth,[1],do not
O=C(N/N=C/c1ccc(N(c2ccccc2)c2ccccc2)cc1)c1ccccc1 [Compound III-C],MCF7 cell growth,[1],inhibit
same,LnCaP cell growth,[2],inhibit
same,T47D cell growth,[3],inhibit
O=C1CN(/N=C/c2ccc(N(c3ccccc3)c3ccccc3)cc2)C(=O)N1 [Compound III-F],number of CD11b+CD14−HLA-DR−/lowCD33+CD15+ MDSCs in MM-PBMC,[4],decreased
same,MDSC-mediated T cell suppression (T cell proliferation),[5],reverses
same,phosphorylation of STAT1 (pY701) in MDSCs,pY701 STAT1,decreases
same,phosphorylation of STAT3 (pY705) in MDSCs,pY705 STAT3,decreases
same,phosphorylation of STAT5 (pY694) in MDSCs,pY694 STAT5,decreases
same,MCF7 cell growth,[1],inhibit
